# Where two headings read alike, the source gives them in different places.
# Assays:
# [1] = tested on: hippocampal slice; assay: Epileptic hippocampal slice, 0% Mg+2-induced epilepsy; assay type: cell-based, Sprague-Dawley albino rat; conditions: Rattus norvegicus, 30 μM Compound No. 6, 0% Mg+2
# Excerpt: Hippocampal slices (450 μ) were obtained from male Sprague-Dawley albino rats (100-325 g). The method of slice preparation has been detailed elsewhere [A. H. Ganong et al., Brain Res., 273, 170-174 (1983)]. Slices were stored in a humidified interface chamber at room temperature and bathed in artificial cerebrospinal fluid (ACSF) which contained (in mM): NaCl 124.0, KCl 5.0, KH2 PO4 1.0, NaHCOP3 26.4, CaCl2, 2.0, MgSO4 1.5 and D-glucose 10.0, and was equilibrated with 95% 02:5% CO2. When needed for study, slices were placed one at a time in a small submersion chamber maintained at 35° C. where they were continuously perfused at 1.0-2.0 ml/min. Fresh solutions reached the recording chamber within 20 seconds and the perfusate was completely changed over within a minute. Additional oxygen and stirring was provided by an air jet (95% O2 :5% CO2) directed at the surface of the ACSF. Standard electrophysiological techniques were employed. Extracellular recording electrodes were glass micropipettes filled with 2.0 M NaCl and broken back to 2.0 m.OMEGA. resistance. All recording was from the somatic region of CA1. […] Intracellular recording electrodes of 60-100 MQ resistance were filled with 2.5 M KAc. […] The Schaffer collateral/commissural fibers were stimulated with tungsten bipolar stimulating electrodes at a rate of 0.03 Hz. The resulting field EPSP (S/C-CA1 EPSP) and the DC potential were amplified by an Axoprobe 1 amplifier and were continuously monitored on a Tektronix 5111A storage oscilloscope and a Gould 2300 chart recorder with a Gould Waveform storage module. Epileptiform activity was induced by omission of Mg++ ions from the perfusate, which removes the Mg++ mediated voltage-dependent block of the NMDA. receptor [B. Ault et al., J. Physiol., 307, 413-428 (1980)], or by the addition of the GABA antagonist picrotoxin. Drugs were added to the perfusate and zero magnesium refers to solutions which contain no added magnesium. The amplitude of the stimulus evoked primary population spike was used to assess the effects of experimental manipulations on the efficacy of synaptic function.
# [2] = biological target: T1, strychnineinsensitive glycine recognition site (NMDA receptor-ion channel complex) (Rattus norvegicus, UniProt P35439); assay: Glycine binding assay, [3H]glycine, synaptic plasma membranes; conditions: 10 nM [3H]glycine, pH 7.4, rat forebrain SPM; read-out: Ki apparent, Gly
# T1 construct: Synaptic plasma membranes (SPM) were prepared from rat forebrain; from tissue; host or cells: rat forebrain synaptic plasma membranes
# Method: Synaptic plasma membranes (SPM) were prepared from rat forebrain and stored as previously described [J. B. Monahan and J. Michel, J. Neurochem, 48, 1699-1708 (1987)]. Frozen membranes were thawed and diluted 1:20 with 0.04% triton X-100 in 50 mM tris/acetate (pH 7.4). Following incubation at 37° C. for 30 min., the SPM were collected by centrifugation at 95,000 X g for 15 min. The pellet was resuspended in 50 mM tris/acetate (pH 7.4, triton-free) and hand-homogenized five times. The membranes were again centrifuged as above. The pellet was washed two additional times with 50 mM tris/acetate (without homogenization) and centrifuged. The final pellet was resuspended with homogenization in 50 mM tris/acetate.
# In the general receptor binding assay procedure, 10 nM [^3 H]glycine was added to the appropriate concentration of the test compounds and the assay initiated by the addition of 0.2-0.4 mg of ice cold SPM. The assay, which was done in 1.5 ml centrifuge tubes, was adjusted to a total volume of 1.0 ml with all additions being made in 50 mM tris/ acetate, pH 7.4 at 4° C. After a 10 minute incubation at 2° C., the samples were centrifuged for 15 min. at 12,000 g (4° C.) in a Beckman Microfuge 12. The supernatant was aspirated and the tube tip containing the pelleted membranes cut off and agitated in 0.5 ml of Beckman BTS-450 tissue solubilizer for a minimum of 6 hours at room temperature. Beckman MP scintillation cocktail (5 ml) containing 7 ml/liter acetic acid was then added and the samples counted on a Beckman LS 5800 liquid scintillation counter with automatic corrections for quenching and counting efficiency. […] The binding of [^3 H]glycine to the SPM was analyzed using Scatchard and Hill transformations and the Ki for other compounds was determined using logit-log analysis. Calculations and regression analysis were performed using templates developed for Lotus 123 as previously described [Pullan et al, Id.].
# [3] = tested on: Cerebellar cGMP; assay: Assay for effect on cGMP (cerebellum, intracisternal injection); assay type: in vivo, Swiss Hausche mice; conditions: ± SEM
# Method: Male Swiss Hausche mice (25-30 g) were injected intracisternally (i.c.t.) with glycine agonists 10 minutes prior to sacrifice by focussed microwave irradiation. Compounds of the invention were injected intracisternally 2 minutes prior to the agonist. For intracisternal injections, al agonists were dissolved in HCl and diluted with isotonic saline prior to adjustment of the pH to between 6 and 7 with NaOH. The compounds of the invention were dissolved in isotonic saline and all compounds were administered in a volume of 5 μl.
# Hydrochloric acid in extracts of the cerebellum were freeze-dried for assay of cGMP with a commercial RIA kit (NEN). Protein determinations (Lowery) and statistics (Dunett's t-test) were performed as described previously [P. L. Wcod et al., Neurochem., 19, 975-982 (1980)]. Groups consisted of 7-10 mice.
smiles,measurement,setting,value
"O=C(O)Cc1c(C(=O)O)[nH]c2cc(Cl)ccc12 [Compound No. 6, 2-carboxy-6-chloro-3-indoleacetic acid]",activity at 30 µM,[1]; read-out: Burst duration,60%
same,activity at 30 µM,[1]; read-out: Primary population spike amplitude,97%
same,activity at 30 µM,[1]; read-out: Spontaneous activity,48%
same,activity at 30 µM,[1]; read-out: Sum of additional population spike amplitude,70.1%
same,Ki,[2],1300 nM
same,Cerebellar cGMP,[3]; Compound No. 6 (5 μg) alone,3.5 ± 0.55 pmol/mg protein
same,Cerebellar cGMP,[3]; D-Serine (100 μg) + Compound No. 6 (5 μg),5.8 ± 0.96 pmol/mg protein
